These results are taken from patent US10988477B2 (Merck Patent GmbH, priority 2018, dated 2021).

Molecules are shown by their SMILES. Where only a bound is given, the exact number is not on record here.

The test has as its target GCN2 kinase (Homo sapiens, UniProt Q9P2K8). Kind of test: GCN2 enzyme inhibition assay (Transcreener ADP2 fluorescence polarization). In kind it is biochemical. To be noted: Enzyme activity for compounds of Formula IV; Ki(app), 280 μM ATP, 25° C. Put shortly: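 FP detection of ADP (antibody plus Alexa633 tracer) after a 1 h, 25 °C kinase reaction. Enzyme 4 nM, ATP 280 μM, (RS)7 peptide 200 μM, Tris pH 7.5 buffer with MgCl2 and DTT. Percent inhibition fitted by non-linear tight-binding algorithm for IC50 and Ki(app).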
For orientation: Polarisation of emitted light reports the rotation of a fluorescent probe.

GCN2 kinase, sequence (Q9P2K8 whole entry): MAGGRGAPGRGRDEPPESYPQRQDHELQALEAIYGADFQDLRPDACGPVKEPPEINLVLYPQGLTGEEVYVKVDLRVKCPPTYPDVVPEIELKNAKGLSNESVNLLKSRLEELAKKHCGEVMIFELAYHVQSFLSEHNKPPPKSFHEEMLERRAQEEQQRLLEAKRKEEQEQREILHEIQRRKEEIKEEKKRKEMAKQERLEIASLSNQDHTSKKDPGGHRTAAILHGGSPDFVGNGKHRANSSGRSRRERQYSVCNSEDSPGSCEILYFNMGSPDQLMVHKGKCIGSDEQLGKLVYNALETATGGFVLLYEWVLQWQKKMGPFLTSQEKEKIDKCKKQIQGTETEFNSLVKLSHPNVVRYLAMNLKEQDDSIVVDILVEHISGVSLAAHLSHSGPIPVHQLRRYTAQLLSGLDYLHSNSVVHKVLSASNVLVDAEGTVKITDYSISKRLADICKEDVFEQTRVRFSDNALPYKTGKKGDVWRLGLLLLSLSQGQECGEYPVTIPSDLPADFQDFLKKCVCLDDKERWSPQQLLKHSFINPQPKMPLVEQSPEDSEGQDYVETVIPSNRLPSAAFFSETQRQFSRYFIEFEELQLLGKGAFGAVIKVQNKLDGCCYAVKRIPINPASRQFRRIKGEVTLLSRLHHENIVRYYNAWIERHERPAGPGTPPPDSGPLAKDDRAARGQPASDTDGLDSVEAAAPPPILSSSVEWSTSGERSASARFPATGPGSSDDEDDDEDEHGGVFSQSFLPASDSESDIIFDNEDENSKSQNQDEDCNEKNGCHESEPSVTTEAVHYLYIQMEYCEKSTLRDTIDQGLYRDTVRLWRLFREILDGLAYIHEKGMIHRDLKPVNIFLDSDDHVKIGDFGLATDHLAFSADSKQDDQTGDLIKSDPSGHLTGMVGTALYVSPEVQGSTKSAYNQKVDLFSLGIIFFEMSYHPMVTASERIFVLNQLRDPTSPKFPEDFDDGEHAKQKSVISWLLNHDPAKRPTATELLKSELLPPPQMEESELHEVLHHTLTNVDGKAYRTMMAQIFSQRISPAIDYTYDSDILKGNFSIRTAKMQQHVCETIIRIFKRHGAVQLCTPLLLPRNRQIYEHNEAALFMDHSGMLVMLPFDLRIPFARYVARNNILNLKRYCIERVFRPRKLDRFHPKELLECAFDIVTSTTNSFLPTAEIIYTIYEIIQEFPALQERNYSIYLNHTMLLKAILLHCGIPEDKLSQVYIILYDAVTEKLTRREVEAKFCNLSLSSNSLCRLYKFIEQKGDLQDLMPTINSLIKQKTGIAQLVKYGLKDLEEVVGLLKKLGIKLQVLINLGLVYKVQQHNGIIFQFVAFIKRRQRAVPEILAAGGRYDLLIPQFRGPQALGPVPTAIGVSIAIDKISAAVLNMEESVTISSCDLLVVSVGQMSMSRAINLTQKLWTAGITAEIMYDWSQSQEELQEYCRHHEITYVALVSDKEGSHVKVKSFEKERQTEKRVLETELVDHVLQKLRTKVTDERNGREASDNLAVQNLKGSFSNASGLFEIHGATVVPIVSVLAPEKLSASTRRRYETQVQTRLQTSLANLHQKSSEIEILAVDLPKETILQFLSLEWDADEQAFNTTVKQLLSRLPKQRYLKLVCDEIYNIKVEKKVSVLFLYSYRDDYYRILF

`Cc1nc(C2=CCCN(c3ccnc(-c4cnc5cnc(Br)cn45)n3)C2)c[nH]1` [IV-356, 6-Bromo-3-(4-(5-(2-methyl-1H-imidazol-4-yl)-3,6-dihydropyridin-1(2H)-yl)pyrimidin-2-yl)imidazo[1,2-a]pyrazine]: the Ki was < 10 nM. The figure for `CC1CN(c2nccc(-c3cnc4cnc(Cl)cn34)n2)C(C)C(c2cn[nH]c2)N1` (stereo not shown) [IV-382, 6-Chloro-3-(2-(2,5-dimethyl-3-(1H-pyrazol-4-yl)piperazin-1-yl)pyrimidin-4-yl)imidazo[1,2-a]pyrazine] is 10 to 100 nM. The figure for `CC1CN(c2nccc(-c3cnc4cnc(Br)cn34)n2)C(C)C(c2cn[nH]c2)N1` (stereo not shown) [IV-383, 6-Bromo-3-(2-(2,5-dimethyl-3-(1H-pyrazol-4-yl)piperazin-1-yl)pyrimidin-4-yl)imidazo[1,2-a]pyrazine] is 10 to 100 nM; for `CC1C(c2cn[nH]c2)OCCN1c1nccc(-c2cnc3cnc(C(F)(F)F)cn23)n1` (stereo not shown) [IV-417, 3-Methyl-2-(1H-pyrazol-4-yl)-4-(4-(6-(trifluoromethyl)imidazo[1,2-a]pyrazin-3-yl)pyrimidin-2-yl)morpholine] it is < 10 nM; for `FC(F)(F)c1cn2c(-c3nccc(N4CCCC4)n3)cnc2cn1` [IV-428, 3-(4-(Pyrrolidin-1-yl)pyrimidin-2-yl)-6-(trifluoromethyl)imidazo[1,2-a]pyrazine] it is 100 to 1000 nM. `FC(F)(F)c1cn2c(-c3nccc(N4CCCCCC4)n3)cnc2cn1` [IV-429, 3-(4-(Azepan-1-yl)pyrimidin-2-yl)-6-(trifluoromethyl)imidazo[1,2-a]pyrazine] returned a Ki of 100 to 1000 nM.

In the case of `Fc1n[nH]cc1C1=CCCN(c2ccnc(-c3cnc4cnc(C(F)(F)F)cn34)n2)C1` [IV-430, 3-(4-(5-(3-Fluoro-1H-pyrazol-4-yl)-3,6-dihydropyridin-1(2H)-yl)pyrimidin-2-yl)-6-(trifluoromethyl)imidazo[1,2-a]pyrazine], the Ki is < 10 nM. For `OCCn1cc(-c2ccnc(-c3cnc4cnc(C(F)(F)F)cn34)n2)cn1` [IV-431, 2-(4-(2-(6-(Trifluoromethyl)imidazo[1,2-a]pyrazin-3-yl)pyrimidin-4-yl)-1H-pyrazol-1-yl)ethan-1-ol] the value was 100 to 1000 nM; for `NC(=O)CC1CCN(c2ccnc(-c3cnc4cnc(C(F)(F)F)cn34)n2)C1` (stereo not shown) [IV-432, 2-(1-(2-(6-(Trifluoromethyl)imidazo[1,2-a]pyrazin-3-yl)pyrimidin-4-yl)pyrrolidin-3-yl)acetamide], 100 to 1000 nM; for `OC1CCN(c2ccnc(-c3cnc4cnc(C(F)(F)F)cn34)n2)C1` (stereo not shown) [IV-433, 1-(2-(6-(Trifluoromethyl)imidazo[1,2-a]pyrazin-3-yl)pyrimidin-4-yl)pyrrolidin-3-ol], 100 to 1000 nM. The figure for `OCC1CCN(c2ccnc(-c3cnc4cnc(C(F)(F)F)cn34)n2)C1` (stereo not shown) [IV-434, (1-(2-(6-(Trifluoromethyl)imidazo[1,2-a]pyrazin-3-yl)pyrimidin-4-yl)pyrrolidin-3-yl)methanol] is 100 to 1000 nM; for `OCCC1CCCCN1c1ccnc(-c2cnc3cnc(C(F)(F)F)cn23)n1` (stereo not shown) [IV-438, 2-(1-(2-(6-(Trifluoromethyl)imidazo[1,2-a]pyrazin-3-yl)pyrimidin-4-yl)piperidin-2-yl)ethan-1-ol] it is 100 to 1000 nM; for `OCC1CCCCN1c1ccnc(-c2cnc3cnc(C(F)(F)F)cn23)n1` (stereo not shown) [IV-440, (1-(2-(6-(Trifluoromethyl)imidazo[1,2-a]pyrazin-3-yl)pyrimidin-4-yl)piperidin-2-yl)methanol] it is 100 to 1000 nM. For `OC1CCN(c2ccnc(-c3cnc4cnc(C(F)(F)F)cn34)n2)CC1` [IV-441, 1-(2-(6-(Trifluoromethyl)imidazo[1,2-a]pyrazin-3-yl)pyrimidin-4-yl)piperidin-4-ol], the Ki fell in the range of 100 to 1000 nM. In turn, `OCC1CCCCN(c2ccnc(-c3cnc4cnc(C(F)(F)F)cn34)n2)C1` (stereo not shown) [IV-445, (1-(2-(6-(Trifluoromethyl)imidazo[1,2-a]pyrazin-3-yl)pyrimidin-4-yl)azepan-3-yl)methanol] came in with a Ki of 100 to 1000 nM. Compound `OCC1CN(c2ccnc(-c3cnc4cnc(C(F)(F)F)cn34)n2)CCO1` (stereo not shown) [IV-446, (4-(2-(6-(Trifluoromethyl)imidazo[1,2-a]pyrazin-3-yl)pyrimidin-4-yl)morpholin-2-yl)methanol] displayed a Ki of 100 to 1000 nM. Regarding `FC(F)(F)c1cn2c(-c3nccc(-c4cnn(C5CCOCC5)c4)n3)cnc2cn1` [IV-448, 3-(4-(1-(Tetrahydro-2H-pyran-4-yl)-1H-pyrazol-4-yl)pyrimidin-2-yl)-6-(trifluoromethyl)imidazo[1,2-a]pyrazine], the Ki was 100 to 1000 nM. In turn, `CC1NCCN(c2ccnc(-c3cnc4cnc(C(F)F)cn34)n2)C1c1cn[nH]c1` (stereo not shown) [IV-455, 6-(Difluoromethyl)-3-(4-(3-methyl-2-(1H-pyrazol-4-yl)piperazin-1-yl)pyrimidin-2-yl)imidazo[1,2-a]pyrazine] came in with a Ki of 100 to 1000 nM. Compound `FC(F)(F)c1cn2c(-c3nccc(N4CCC(c5c[nH]cn5)C4)n3)cnc2cn1` (stereo not shown) [IV-456, 3-(4-(3-(1H-Imidazol-4-yl)pyrrolidin-1-yl)pyrimidin-2-yl)-6-(trifluoromethyl)imidazo[1,2-a]pyrazine] had a Ki of 100 to 1000 nM. Compound `FC(F)(F)c1cn2c(-c3nccc(N4CCC(c5cc[nH]n5)C4)n3)cnc2cn1` (stereo not shown) [IV-457, 3-(4-(3-(1H-Pyrazol-3-yl)pyrrolidin-1-yl)pyrimidin-2-yl)-6-(trifluoromethyl)imidazo[1,2-a]pyrazine] registered a Ki of 100 to 1000 nM. The figure for `CC1CC(C(N)=O)C(C)N(c2ccnc(-c3cnc4cnc(C(F)(F)F)cn34)n2)C1` (stereo not shown) [IV-464, 2,5-Dimethyl-1-(2-(6-(trifluoromethyl)imidazo[1,2-a]pyrazin-3-yl)pyrimidin-4-yl)piperidine-3-carboxamide] is < 10 nM; for `Fc1n[nH]cc1C1CCCN(c2ccnc(-c3cnc4cnc(C(F)(F)F)cn34)n2)C1` (stereo not shown) [IV-473, 3-(4-(3-(5-Fluoro-1H-pyrazol-4-yl)piperidin-1-yl)pyrimidin-2-yl)-6-(trifluoromethyl)imidazo[1,2-a]pyrazine] it is < 10 nM. For `Nc1cnn(C2CCN(c3ccnc(-c4cnc5cnc(C(F)(F)F)cn45)n3)C2)c1` (stereo not shown) [IV-478, 1-(1-(2-(6-(Trifluoromethyl)imidazo[1,2-a]pyrazin-3-yl)pyrimidin-4-yl)pyrrolidin-3-yl)-1H-pyrazol-4-amine] the value was 100 to 1000 nM. For `O=C(NCCO)C1CCCN(c2ccnc(-c3cnc4cnc(C(F)(F)F)cn34)n2)C1` (stereo not shown) [IV-479, N-(2-Hydroxyethyl)-1-(2-(6-(trifluoromethyl)imidazo[1,2-a]pyrazin-3-yl)pyrimidin-4-yl)piperidine-3-carboxamide] the value was 100 to 1000 nM; for `CS(=O)(=O)CC1CCCN(c2ccnc(-c3cnc4cnc(C(F)(F)F)cn34)n2)C1` (stereo not shown) [IV-482, 3-(4-(3-((Methylsulfonyl)methyl)piperidin-1-yl)pyrimidin-2-yl)-6-(trifluoromethyl)imidazo[1,2-a]pyrazine], 100 to 1000 nM. Compound `CS(=O)(=O)C1CCCN(c2ccnc(-c3cnc4cnc(C(F)(F)F)cn34)n2)C1` (stereo not shown) [IV-483, 3-(4-(3-(Methylsulfonyl)piperidin-1-yl)pyrimidin-2-yl)-6-(trifluoromethyl)imidazo[1,2-a]pyrazine] registered a Ki of 100 to 1000 nM. Take `FC(F)(F)c1cn2c(-c3ccnc(N4CCCC(c5c[nH]cn5)C4)n3)cnc2cn1` (stereo not shown) [IV-484, 3-(2-(3-(1H-Imidazol-4-yl)piperidin-1-yl)pyrimidin-4-yl)-6-(trifluoromethyl)imidazo[1,2-a]pyrazine]: the Ki lay in the range of 10 to 100 nM. The figure for `NCCC1CN(c2ccnc(-c3cnc4cnc(C(F)(F)F)cn34)n2)CCO1` (stereo not shown) [IV-486] is 100 to 1000 nM; for `NCC1CCN(c2ccnc(-c3cnc4cnc(C(F)(F)F)cn34)n2)CC1` [IV-487] it is 100 to 1000 nM. `NCC1CN(c2ccnc(-c3cnc4cnc(C(F)(F)F)cn34)n2)CCO1` (stereo not shown) [IV-489] had a Ki of 100 to 1000 nM. The figure for `O=C1CN(C2CCCN(c3ccnc(-c4cnc5cnc(C(F)(F)F)cn45)n3)C2)CCN1` (stereo not shown) [IV-490, 4-(1-(2-(6-(Trifluoromethyl)imidazo[1,2-a]pyrazin-3-yl)pyrimidin-4-yl)piperidin-3-yl)piperazin-2-one] is 100 to 1000 nM; for `FC(F)(F)c1cn2c(-c3nccc(N4CCCC5(CCOC5)C4)n3)cnc2cn1` (stereo not shown) [IV-496, 7-(2-(6-(Trifluoromethyl)imidazo[1,2-a]pyrazin-3-yl)pyrimidin-4-yl)-2-oxa-7-azaspiro[4.5]decane] it is 100 to 1000 nM. The figure for `FC(F)(F)c1cn2c(-c3nccc(N4CC5CCOC5C4)n3)cnc2cn1` (stereo not shown) [IV-497, 5-(2-(6-(Trifluoromethyl)imidazo[1,2-a]pyrazin-3-yl)pyrimidin-4-yl)hexahydro-2H-furo[2,3-a]pyrrole] is 100 to 1000 nM; for `NC(C1CCCN(c2ccnc(-c3cnc4cnc(C(F)(F)F)cn34)n2)C1)C(F)(F)F` (stereo not shown) [IV-502, 2,2,2-Trifluoro-1-(1-(2-(6-(trifluoromethyl)imidazo[1,2-a]pyrazin-3-yl)pyrimidin-4-yl)piperidin-3-yl)ethan-1-amine] it is 100 to 1000 nM; for `NC(C1CCCN(c2ccnc(-c3cnc4cnc(C(F)(F)F)cn34)n2)C1)C(F)(F)F` (stereo not shown) [IV-503, 2,2,2-Trifluoro-1-(1-(2-(6-(trifluoromethyl)imidazo[1,2-a]pyrazin-3-yl)pyrimidin-4-yl)piperidin-3-yl)ethan-1-amine] it is 100 to 1000 nM. The figure for `FC(F)(F)c1cn2c(-c3nccc(N4CCN5CCOCC5C4)n3)cnc2cn1` (stereo not shown) [IV-504, 8-(2-(6-(Trifluoromethyl)imidazo[1,2-a]pyrazin-3-yl)pyrimidin-4-yl)octahydropyrazino[2,1-a][1,4]oxazine] is 100 to 1000 nM; for `FC(F)(F)c1cn2c(-c3nccc(N4CCCC5(CCOCC5)C4)n3)cnc2cn1` [IV-505, 2-(2-(6-(Trifluoromethyl)imidazo[1,2-a]pyrazin-3-yl)pyrimidin-4-yl)-9-oxa-2-azaspiro[5.5]undecane] it is 100 to 1000 nM.
